Laboratory results published in PubChem BioAssay (NCI).
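Protocol summary: plate cells (96-well), add compound at 5 concentrations, incubate 48 h, interpolate endpoints linearly. GI50 is the concentration that inhibits growth by half. At the TGI there is no net growth.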

Legend:
Test in all cases: growth of human tumour cells (NCI), 48 h
SNB-75 CNS = test system: SNB-75 CNS
A549 NSCLC = test system: A549 NSCLC
SR leukemia = test system: SR leukemia
NCI-H23 lung = test system: NCI-H23 lung
CCRF-CEM leukemia = test system: CCRF-CEM leukemia
SW-620 colon = test system: SW-620 colon
HCT-116 colon = test system: HCT-116 colon
SF-295 CNS = test system: SF-295 CNS
IGROV1 ovarian = test system: IGROV1 ovarian
HS 578T breast = test system: HS 578T breast
NCI-H522 lung = test system: NCI-H522 lung
OVCAR-3 ovarian = test system: OVCAR-3 ovarian
SF-539 CNS = test system: SF-539 CNS
OVCAR-4 ovarian = test system: OVCAR-4 ovarian
SK-OV-3 ovarian = test system: SK-OV-3 ovarian
BT-549 breast = test system: BT-549 breast
T-47D breast = test system: T-47D breast
KM12 colon = test system: KM12 colon
NCI-H226 lung = test system: NCI-H226 lung
NCI/ADR-RES ovarian = test system: NCI/ADR-RES ovarian
MDA-MB-231 breast = test system: MDA-MB-231 breast
A498 renal = test system: A498 renal
SK-MEL-5 melanoma = test system: SK-MEL-5 melanoma
HL-60(TB) leukemia = test system: HL-60(TB) leukemia
NCI-H460 lung = test system: NCI-H460 lung
MCF7 breast = test system: MCF7 breast
UO-31 renal = test system: UO-31 renal
SK-MEL-2 melanoma = test system: SK-MEL-2 melanoma
RPMI-8226 leukemia = test system: RPMI-8226 leukemia
M14 melanoma = test system: M14 melanoma
CAKI-1 renal = test system: CAKI-1 renal
ACHN renal = test system: ACHN renal
SK-MEL-28 melanoma = test system: SK-MEL-28 melanoma
K-562 leukemia = test system: K-562 leukemia
SF-268 CNS = test system: SF-268 CNS
MDA-MB-435 = test system: MDA-MB-435
PC-3 prostate = test system: PC-3 prostate
U251 CNS = test system: U251 CNS
HCT-15 colon = test system: HCT-15 colon
MALME-3M melanoma = test system: MALME-3M melanoma
HCC-2998 colon = test system: HCC-2998 colon
SNB-19 CNS = test system: SNB-19 CNS
OVCAR-8 ovarian = test system: OVCAR-8 ovarian
HOP-92 NSCLC = test system: HOP-92 NSCLC
LOX IMVI melanoma = test system: LOX IMVI melanoma
HT29 colon = test system: HT29 colon
TK-10 renal = test system: TK-10 renal
MOLT-4 leukemia = test system: MOLT-4 leukemia
COLO 205 colon = test system: COLO 205 colon
OVCAR-5 ovarian = test system: OVCAR-5 ovarian
786-0 renal = test system: 786-0 renal
DU-145 prostate = test system: DU-145 prostate
SN12C renal = test system: SN12C renal
RXF 393 renal = test system: RXF 393 renal
UACC-62 melanoma = test system: UACC-62 melanoma
UACC-257 melanoma = test system: UACC-257 melanoma
HOP-62 NSCLC = test system: HOP-62 NSCLC

In the case of CN(CCO)C1CCN(c2ccc(Nc3ncc4c5ccnc(F)c5n(C5CCCC5)c4n3)nc2)CC1, the GI50 (SNB-75 CNS) was 5.67 µM, the TGI (SNB-75 CNS) was 20.7 µM and the GI50 (A549 NSCLC) was 2.27 µM. It also gave a TGI (A549 NSCLC) of 7.9 µM, a GI50 (SR leukemia) of 1.23 µM and a TGI (SR leukemia) of 4.61 µM. The GI50 (NCI-H23 lung) was 7.76 µM, the TGI (NCI-H23 lung) was 32.3 µM and the GI50 (CCRF-CEM leukemia) was 0.208 µM. The TGI (CCRF-CEM leukemia) was 3.59 µM, the GI50 (SW-620 colon) was 0.184 µM and the TGI (SW-620 colon) was 2.21 µM. The GI50 (HCT-116 colon) was 1.85 µM, the TGI (HCT-116 colon) was 7.36 µM and the GI50 (SF-295 CNS) was 2.22 µM. For the same compound, the TGI (SF-295 CNS) was 20.2 µM, the GI50 (IGROV1 ovarian) was 11.7 µM and the TGI (IGROV1 ovarian) was 30.8 µM. It also gave a GI50 (HS 578T breast) of 6.01 µM, a TGI (HS 578T breast) of 34.3 µM and a GI50 (NCI-H522 lung) of 17.2 µM. It also gave a TGI (NCI-H522 lung) of 36.2 µM, a GI50 (OVCAR-3 ovarian) of 14.9 µM and a TGI (OVCAR-3 ovarian) of 30.4 µM. For the same compound, the GI50 (SF-539 CNS) was 4.6 µM, the TGI (SF-539 CNS) was 10.5 µM and the GI50 (OVCAR-4 ovarian) was 11.2 µM. It also gave a TGI (OVCAR-4 ovarian) of 27.7 µM, a GI50 (SK-OV-3 ovarian) of 11.1 µM and a TGI (SK-OV-3 ovarian) of 26 µM. It also gave a GI50 (BT-549 breast) of 13.1 µM, a TGI (BT-549 breast) of 31.4 µM and a GI50 (T-47D breast) of 17.5 µM. For the same compound, the TGI (T-47D breast) was 69.1 µM, the GI50 (KM12 colon) was 0.0514 µM and the TGI (KM12 colon) was 1.73 µM. The GI50 (NCI-H226 lung) was 16.3 µM, the TGI (NCI-H226 lung) was 55 µM and the GI50 (NCI/ADR-RES ovarian) was 15.3 µM. The TGI (NCI/ADR-RES ovarian) was 36 µM, the GI50 (MDA-MB-231 breast) was 6.01 µM and the TGI (MDA-MB-231 breast) was 24.2 µM. The GI50 (A498 renal) was 0.366 µM, the TGI (A498 renal) was 14.6 µM and the GI50 (SK-MEL-5 melanoma) was 10.9 µM. The TGI (SK-MEL-5 melanoma) was 25.9 µM, the GI50 (HL-60(TB) leukemia) was 0.103 µM and the TGI (HL-60(TB) leukemia) was 8.05 µM. The GI50 (NCI-H460 lung) was 0.99 µM, the TGI (NCI-H460 lung) was 2.44 µM and the GI50 (MCF7 breast) was 0.106 µM. The TGI (MCF7 breast) was 3.05 µM, the GI50 (UO-31 renal) was 1.86 µM and the TGI (UO-31 renal) was 20.9 µM. The GI50 (SK-MEL-2 melanoma) was 20.4 µM, the TGI (SK-MEL-2 melanoma) was 45.6 µM and the GI50 (RPMI-8226 leukemia) was 0.184 µM. For the same compound, the TGI (RPMI-8226 leukemia) was 19.8 µM, the GI50 (M14 melanoma) was 11.7 µM and the TGI (M14 melanoma) was 32.8 µM. For the same compound, the GI50 (CAKI-1 renal) was 4.44 µM, the TGI (CAKI-1 renal) was 21.3 µM and the GI50 (ACHN renal) was 1.98 µM. For the same compound, the TGI (ACHN renal) was 20.6 µM, the GI50 (SK-MEL-28 melanoma) was 12.3 µM and the TGI (SK-MEL-28 melanoma) was 28.9 µM. The GI50 (K-562 leukemia) was 1.32 µM, the TGI (K-562 leukemia) was 4.08 µM and the GI50 (SF-268 CNS) was 12.5 µM. The TGI (SF-268 CNS) was 30.9 µM, the GI50 (MDA-MB-435) was 5.84 µM and the TGI (MDA-MB-435) was 20.7 µM. It also gave a GI50 (PC-3 prostate) of 8.47 µM, a TGI (PC-3 prostate) of 25.8 µM and a GI50 (U251 CNS) of 2.74 µM. For the same compound, the TGI (U251 CNS) was 7.5 µM, the GI50 (HCT-15 colon) was 3.01 µM and the TGI (HCT-15 colon) was 7.79 µM. It also gave a GI50 (MALME-3M melanoma) of 12.7 µM, a TGI (MALME-3M melanoma) of 34.5 µM and a GI50 (HCC-2998 colon) of 11.1 µM. It also gave a TGI (HCC-2998 colon) of 25.4 µM, a GI50 (SNB-19 CNS) of 2.47 µM and a TGI (SNB-19 CNS) of 33.8 µM. The GI50 (OVCAR-8 ovarian) was 14.7 µM, the TGI (OVCAR-8 ovarian) was 43.4 µM and the GI50 (HOP-92 NSCLC) was 11.6 µM. The TGI (HOP-92 NSCLC) was 28.8 µM, the GI50 (LOX IMVI melanoma) was 1.02 µM and the TGI (LOX IMVI melanoma) was 2.24 µM. The GI50 (HT29 colon) was 1.23 µM, the TGI (HT29 colon) was 4.45 µM and the GI50 (TK-10 renal) was 1.59 µM. For the same compound, the TGI (TK-10 renal) was 21.2 µM, the GI50 (MOLT-4 leukemia) was 0.0513 µM and the TGI (MOLT-4 leukemia) was 9.74 µM. For the same compound, the GI50 (COLO 205 colon) was 0.0817 µM, the TGI (COLO 205 colon) was 18.5 µM and the GI50 (OVCAR-5 ovarian) was 0.812 µM. For the same compound, the TGI (OVCAR-5 ovarian) was 20.7 µM, the GI50 (786-0 renal) was 5.12 µM and the TGI (786-0 renal) was 26.9 µM. For the same compound, the GI50 (DU-145 prostate) was 1.76 µM, the TGI (DU-145 prostate) was 3.18 µM and the GI50 (SN12C renal) was 12.2 µM. The TGI (SN12C renal) was 31.5 µM, the GI50 (RXF 393 renal) was 1.73 µM and the TGI (RXF 393 renal) was 16.8 µM. It also gave a GI50 (UACC-62 melanoma) of 16.7 µM, a TGI (UACC-62 melanoma) of 46 µM and a GI50 (UACC-257 melanoma) of 17.6 µM. It also gave a TGI (UACC-257 melanoma) of 40 µM, a GI50 (HOP-62 NSCLC) of 4.7 µM and a TGI (HOP-62 NSCLC) of 25.4 µM.
